In article PMC12064818, “A general assay platform to study protein pharmacology using ligand-dependent structural dynamics” (Nature Communications, 2025):
“And” between values parts separate entries of the source, which are not always exact repeats. Equal values may be shown once.

Columns and labels:
[1] = target: FLuc-N-HiBiT (firefly luciferase) (Photinus pyralis, UniProt P08659, form not given/L550V); assay: Firefly luciferase (FLuc) enzymatic luminescence assay, FLuc-N-HiBiT; assay type: biochemical; details: for Functional Enzymatic Assay: 10 nM FLuc-N-HiBiT, replicates; for Functional Enzymatic Assay / 10 nM FLuc-N-HiBiT Enz, Mean: Log [PTC124]
Protocol: The enzyme activity of FLuc-N-HiBiT, FLuc-C-HiBiT, and FLuc-C-NLuc was measured similar to P. pyralis firefly luciferase (FLuc) as previously described. […] Compounds and controls were added to each plate as described in Supplementary Data 8 with a Hornet pintool system (Wako Automation). Compounds were incubated with respective enzymes for 30–60 min at room temperature protected from light and covered by solid metal lid to prevent evaporation. […] Luciferin was incubated with FLuc enzyme for 5 min before FLuc activity was then measured on a ViewLux CCD imager (PerkinElmer), with exposure times up to ten seconds with medium to high gain settings. Data were normalized to average no enzyme control as 100% enzyme inhibition and average DMSO neutral control. See Supplementary Table 4 for additional details.
Supplementary Table 4. Protocol for Firefly luciferase (FLuc) and NanoLuc (NLuc) enzymatic
Supplementary Table 4: Protocol for Firefly luciferase (FLuc) and NanoLuc (NLuc) enzym atic lum inescence assay
Firefly luciferase (FLuc) enzym atic lum inescence assay
Sequence Param eter Value Description
No enzym e control (colum n 1) and enzym e solution (1- 10 nM FLuc enzym e) in FLuc assay
1 Reagent 4 µLbuffer; white/solid bottom , m edium bind, high base plates (Greiner), dispensed with BioRaptr
com pounds transferred to respective colum ns with Pintool
2b Test Com pounds 23 nLconcentration range) in colum ns 5- 48; com pounds transferred to respective wells with
3 Incubation 30 m in Incubate enzym e + com pounds at am bient tem p for 30 m in, protected from light
4 Reagent 3 µLAdd 3 µL of D-luciferin substrate solution to each well (final concentration 10 µM); dispensed
5 Detector ViewLux Read plate lum inescence (Exposure = 1- 10 sec; Gain = Medium -high; Speed = Slow;
Dispensing solution was diluted in 1X PBS, pH 7.4. […]

FLuc-C-HiBiT = target: T1, FLuc-C-HiBiT (Photinus pyralis, UniProt P08659); assay: biochemical; details: enzyme activity, 10 uM ATP; read-out: IC50 or SDR50 (mM) / FLuc E
T1 construct: firefly luciferase with C-terminal HiBiT tag, E. coli expressed
T1 sequence (P08659 whole entry, looked up): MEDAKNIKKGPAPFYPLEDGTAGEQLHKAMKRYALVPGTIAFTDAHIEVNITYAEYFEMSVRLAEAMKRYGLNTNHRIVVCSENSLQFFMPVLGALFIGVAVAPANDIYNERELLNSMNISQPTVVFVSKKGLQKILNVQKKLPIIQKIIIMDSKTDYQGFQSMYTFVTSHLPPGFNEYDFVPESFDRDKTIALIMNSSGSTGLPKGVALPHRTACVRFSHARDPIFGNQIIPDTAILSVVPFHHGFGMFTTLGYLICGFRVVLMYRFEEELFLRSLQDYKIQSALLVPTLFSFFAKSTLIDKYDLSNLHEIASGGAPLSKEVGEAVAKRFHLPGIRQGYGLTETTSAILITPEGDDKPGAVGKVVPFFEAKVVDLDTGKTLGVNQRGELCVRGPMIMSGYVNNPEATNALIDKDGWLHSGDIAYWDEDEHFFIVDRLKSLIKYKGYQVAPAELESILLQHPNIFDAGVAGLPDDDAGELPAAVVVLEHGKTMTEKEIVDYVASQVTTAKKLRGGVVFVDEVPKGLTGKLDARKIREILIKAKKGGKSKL

Chain of FLuc-N-HiBiT (firefly luciferase) (P08659 2-550 L550V, form open): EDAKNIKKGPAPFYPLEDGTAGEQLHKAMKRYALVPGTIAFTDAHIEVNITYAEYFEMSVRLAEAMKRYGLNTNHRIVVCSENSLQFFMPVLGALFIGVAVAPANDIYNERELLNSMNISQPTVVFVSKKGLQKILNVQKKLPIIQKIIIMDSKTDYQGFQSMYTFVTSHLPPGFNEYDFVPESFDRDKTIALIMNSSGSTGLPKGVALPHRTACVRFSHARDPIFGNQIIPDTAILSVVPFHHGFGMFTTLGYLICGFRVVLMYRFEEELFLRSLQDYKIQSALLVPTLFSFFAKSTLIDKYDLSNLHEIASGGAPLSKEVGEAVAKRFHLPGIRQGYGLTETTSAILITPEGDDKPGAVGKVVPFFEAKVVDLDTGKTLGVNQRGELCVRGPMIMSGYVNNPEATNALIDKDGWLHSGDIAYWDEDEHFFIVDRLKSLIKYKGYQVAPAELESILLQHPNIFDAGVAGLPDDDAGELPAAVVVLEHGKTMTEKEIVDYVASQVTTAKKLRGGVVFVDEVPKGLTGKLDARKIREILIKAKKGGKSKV

**Q.** For `O=C(O)c1cccc(-c2noc(-c3ccccc3F)n2)c1` [PTC124, reference compound], which “Functional Enzymatic Assay” value ([1]; M -4.48) is on record?
**A.** 7.2 RLU and 7.9 RLU (2×) and 7.3 RLU and 6.7 RLU and 7.1 RLU

**Q.** What about the “Functional Enzymatic Assay” value ([1]; M -4.96) of the same molecule?
**A.** 8.6 RLU and 8.1 RLU and 7.7 RLU and 8.3 RLU and 7.1 RLU and 7.2 RLU

**Q.** What about the “Functional Enzymatic Assay” value ([1]; M -5.44) of the same molecule?
**A.** 8.3 RLU (2×) and 8.6 RLU and 8.4 RLU and 7.5 RLU (2×)

**Q.** What about the “Functional Enzymatic Assay” value ([1]; M -5.91) of the same molecule?
**A.** 8.7 RLU (2×) and 9.2 RLU and 8.9 RLU and 8.3 RLU and 8.5 RLU

**Q.** What about the “Functional Enzymatic Assay” value ([1]; M -6.39) of the same molecule?
**A.** 10.6 RLU and 10.5 RLU and 10.2 RLU (2×) and 10.1 RLU and 9.7 RLU

**Q.** What about the “Functional Enzymatic Assay” value ([1]; M -6.87) of the same molecule?
**A.** 14.3 RLU (2×) and 14.5 RLU and 14.7 RLU and 15.0 RLU and 14.8 RLU

**Q.** And the “Functional Enzymatic Assay” value ([1]; M -7.35)?
**A.** 29.6 RLU and 29.7 RLU and 30.2 RLU and 33.4 RLU and 41.4 RLU and 37.0 RLU

**Q.** And the “Functional Enzymatic Assay” value ([1]; M -7.82)?
**A.** 144.5 RLU and 149.3 RLU and 178.2 RLU and 166.0 RLU and 190.3 RLU and 174.6 RLU

**Q.** What about the “Functional Enzymatic Assay” value ([1]; M -8.30) of the same molecule?
**A.** 301.7 RLU and 309.5 RLU and 327.2 RLU and 328.1 RLU and 308.7 RLU and 316.4 RLU

**Q.** What about the “Functional Enzymatic Assay” value ([1]; M -8.78) of the same molecule?
**A.** 370.7 RLU and 364.6 RLU and 370.3 RLU and 363.9 RLU and 364.3 RLU and 365.0 RLU

**Q.** What about the “Functional Enzymatic Assay” value ([1]; M -9.25) of the same molecule?
**A.** 391.9 RLU and 389.1 RLU and 396.6 RLU and 382.9 RLU and 381.5 RLU and 379.2 RLU

**Q.** What about the “Functional Enzymatic Assay” value ([1]; M -9.73) of the same molecule?
**A.** 393.8 RLU and 390.8 RLU and 393.2 RLU and 390.0 RLU and 387.4 RLU and 383.0 RLU

**Q.** What about the “Functional Enzymatic Assay” value ([1]; M -10.21) of the same molecule?
**A.** 400.1 RLU and 398.5 RLU and 399.0 RLU and 394.9 RLU and 391.0 RLU and 381.4 RLU

**Q.** And the “Functional Enzymatic Assay” value ([1]; M -10.69)?
**A.** 399.5 RLU and 393.3 RLU and 400.5 RLU and 393.7 RLU and 383.2 RLU and 377.0 RLU

**Q.** And the “Functional Enzymatic Assay” value ([1]; M -11.16)?
**A.** 392.3 RLU and 386.5 RLU and 400.5 RLU and 393.0 RLU and 385.0 RLU and 368.5 RLU

**Q.** What about the “Functional Enzymatic Assay” value ([1]; M -11.64) of the same molecule?
**A.** 389.5 RLU and 376.4 RLU and 395.8 RLU and 380.1 RLU and 381.7 RLU and 371.3 RLU

**Q.** What about the “pIC50, FLuc-N-HiBiT (10 nM)” value ([1]; 10 μM ATP) of the same molecule?
**A.** 7.68 ± 0.02

**Q.** What about the “10 nM FLuc-N-HiBiT Enz, Mean” value ([1]; M (Enz) -4.24) of the same molecule?
**A.** 7.3 RLU

**Q.** What about the “10 nM FLuc-N-HiBiT Enz, Mean” value ([1]; M (Enz) -4.72) of the same molecule?
**A.** 7.8 RLU

**Q.** And the “10 nM FLuc-N-HiBiT Enz, Mean” value ([1]; M (Enz) -5.19)?
**A.** 8.1 RLU

**Q.** And the “10 nM FLuc-N-HiBiT Enz, Mean” value ([1]; M (Enz) -5.67)?
**A.** 8.7 RLU

**Q.** And the “10 nM FLuc-N-HiBiT Enz, Mean” value ([1]; M (Enz) -6.15)?
**A.** 10.2 RLU

**Q.** And the “10 nM FLuc-N-HiBiT Enz, Mean” value ([1]; M (Enz) -6.63)?
**A.** 14.6 RLU

**Q.** What about the “10 nM FLuc-N-HiBiT Enz, Mean” value ([1]; M (Enz) -7.10) of the same molecule?
**A.** 33.5 RLU

**Q.** What about the “10 nM FLuc-N-HiBiT Enz, Mean” value ([1]; M (Enz) -7.58) of the same molecule?
**A.** 167.1 RLU

**Q.** What about the “10 nM FLuc-N-HiBiT Enz, Mean” value ([1]; M (Enz) -8.06) of the same molecule?
**A.** 315.3 RLU

**Q.** What about the “10 nM FLuc-N-HiBiT Enz, Mean” value ([1]; M (Enz) -8.53) of the same molecule?
**A.** 366.5 RLU

**Q.** And the “10 nM FLuc-N-HiBiT Enz, Mean” value ([1]; M (Enz) -9.01)?
**A.** 386.9 RLU

**Q.** And the “10 nM FLuc-N-HiBiT Enz, Mean” value ([1]; M (Enz) -9.49)?
**A.** 389.7 RLU

**Q.** And the “10 nM FLuc-N-HiBiT Enz, Mean” value ([1]; M (Enz) -9.97)?
**A.** 394.1 RLU

**Q.** What about the “10 nM FLuc-N-HiBiT Enz, Mean” value ([1]; M (Enz) -10.44) of the same molecule?
**A.** 391.2 RLU

**Q.** And the “10 nM FLuc-N-HiBiT Enz, Mean” value ([1]; M (Enz) -10.92)?
**A.** 387.6 RLU

**Q.** What about the “10 nM FLuc-N-HiBiT Enz, Mean” value ([1]; M (Enz) -11.40) of the same molecule?
**A.** 382.5 RLU

**Q.** For `CC(CNC(=O)C1CCN(C(=O)c2ncn3c2COC(c2ccccc2)C3)CC1)c1ccccc1` (stereo not shown) [compound 00449795], which IC50 (FLuc-C-HiBiT) is on record?
**A.** 0.00248 mM
